Test results as given in patent US20120172375A1, “COMPOUNDS AND METHODS OF PROMOTING OLIGODENDROCYTE PRECURSOR DIFFERENTIATION” (priority 2008, published 2012).

Tests used:
[1] = test system: oligodendrocyte progenitor cells; assay: Western blot for myelin proteins PLP/DM20 and CNPase in treated oligodendrocyte progenitor cells; assay type: cell-based, mouse; conditions: Table 3, 10 μM, 48 hrs
Procedure: (§1) Oligodendrocyte progenitors were generated from embryonic neural progenitors growing in cell aggregates known as neurospheres (Nphs). Nph were prepared from embryos at 14.5 days of gestation obtained from timed pregnant females of either wild type mice or the proteolipid protein-enhanced-green fluorescence protein (Plp-EGFP) transgenic mouse. In brief, after separation of meninges and cerebellum, cerebrum tissue was mechanically triturated with a 1 ml Gilson pipette until total tissue disaggregation was achieved, filtered through a 70 μm cell strainer (Fisher Scientific, Pittsburg, Pa.) and plated in 25 cm^2 plastic culture flasks (2 brains/flask). Nph proliferation media (NPM) was DMEM/F12, B27 neuronal supplement (Gibco, Baltimore, Md.) and 10 ng/ml EGF (Sigma, St. Louis, Mo.). After 48-72 hr, floating Nphs were passaged at a 1:3 ratio in the same medium every 3-4 days. To generate oligodendrocyte progenitors, single cells suspensions were obtained by chemical disgregation with the mouse NeuroCult dissociation kit (StemCell Technologies, Alberta, Canada). The single cell suspension was filtered through a 70 μm cell strainer and plated on 96-well poly-D-Lysine (PDL)-coated plates at a cell density of 1.5×10^4 cells/cm^2. Cells were maintained in NPM supplemented with 10 ng/ml PDGF/bFGF instead of EGF. Bipolar, oligodendrocyte progenitor cells were observed 24 hours after plating. At the Moment of treatment to induce oligodendrocyte progenitor differentiation, the media was changed to OPC differentiation media containing NPM with a 1:10 dilution of PDGF/FGF.
For myelin protein analyses, cells were grown on 100 mm culture plates and after exposure to small molecules or controls were washed twice with ice-cold PBS. RIPA lysis buffer was added to the plates and the cells were scraped, collected and disrupted with a homogenizer on ice. Cell homogenates were then centrifuged at 6,000×g, 10 min, 4° C. and supernatants separated in a fresh tube. After adding Laemli loading buffer, proteins were denaturized at 70° C. for 10 mm and loaded in gradient gels (4-20, Criterion, BioRad, Calif.). Electroforetically separated proteins were electro-transferred to nitrocellulose membranes in a semi-dry apparatus and unspecific bonds were blocked with IRdye blocking solution for at least 1 hr at RT. After washing twice with TBS-T, primary antibodies were added and incubated over night at 4° C. Membranes were incubated with secondary, IRdye-infrared conjugated antibodies for 1 hr at RT and visualized on the Odyssey scanner.
(§2) The primary screening to select positive compounds was performed at a standard concentration of 10 μM with cell morphology analysis 48 hrs after treatment. Dose response curves at 48 hrs treatment time were performed to determine the minimum concentration compounds A, A-7 and B needed to induce cell maturation. We assessed oligodendrocyte differentiation by cell morphology changes, green fluorescence in cells generated from or Plp-EGFP transgenic mouse, immunostaining for myelin proteins and western blot for expression of the oligodendrocyte markers PLP/DM20 and 2′,3′, cyclic nucleotide 3′ phosphohydrolase (CNPase). EC50 values were also calculated based on results of western blot for myelin proteins and subsequent band densitometry analysis. Additionally, we followed cell differentiation induced over long time exposure to compounds A and B (7 days, 0.1-10 μM).

[2] = test system: oligodendrocyte progenitor cells; assay: Immunocytochemistry for PLP/DM20 and MBP, count of differentiated cells; assay type: cell-based, mouse; conditions: Table 3, 10 μM, 48 hrs
Procedure: Immunodetection of oligodendrocyte and myelin markers was performed. In brief, Oligodendrocyte cells plated on PDL-coated dishes were initially fixed in 2% paraformaldehyde (PFA) for 10 min at room temperature (RT) and then 4% PFA for 15 min, washed three times with PBS and permeabilized with 0.1% Triton X100 for 10 min at RT. After blocking with 3% BSA in PBS for 60 min a RT, the cells were incubated with primary antibodies at the indicated concentrations overnight (ON) at 4° C. The cells were washed three times with cold PBS incubated with secondary antibodies for 45 min at RT, and washed again before mounting. Immunostaining of tissue sections prepared with a sliding microtome (30 μm) was performed. In brief, tris buffered saline (TBS) containing 100 nM Sodium fluoride (TBSS) was used the all dilutions and washes. For antigen retrieval, sections were washed 3 times in TBSS, incubated in 5% methanol and 3% H2O2 for 10 min, washed 2 times, and then incubated in 10% Triton X-100 for 20 min. Blocking of unspecific bonds was performed by incubating the tissue sections with 10% NGS for 1 hr. Primary antibodies were diluted in 3% BSA containing 0.02% Triton X-100 and sections were incubated overnight in this solution. The next day the sections were washed 3 times in TBSS, followed by 1 hr incubation in secondary antibodies (1:1000) at 4° C. After several washes, the sections were mounted using Vectashield (Vector Laboratories, Burlingame, Calif.). Visualization of immunostained cells and tissue was performed on a Leica DMR (Wetzlar, Germany) or a Leica SP5 confocal microscope.
as §2
Compound A-7-induced oligodendrocyte progenitor maturation was also analyzed in comparison to control cells in immunostaining experiments to detect the myelin proteins MBP and PLP. Positive cells for these markers showing processes formation and membranous structures were counted versus total cells and counterstained with the nuclear dye Dapi after 48 hrs (Tables 3 and 4) and 7 days treatment with 0.1, 1 or 10 μM compound A-7 (FIG. 2, B).

[3] = test system: oligodendrocyte progenitors; assay: Primary/secondary screening: oligodendrocyte progenitor morphology changes and Plp-EGFP fluorescence; assay type: cell-based, mouse
Procedure: as §1, with “At the Moment of treatment to induce oligodendrocyte progenitor differentiation, the media was changed to OPC differentiation media containing NPM with a 1:10 dilution of PDGF/FGF.” left out
The small molecule library consists of handcrafted drug-like organic molecules with molecular weight in a range of 250-550, dissolved in DMSO at concentration of 5 mg/ml or […]. Their structure and >95% purity have been validated by NMR. […] Oligodendrocyte progenitor differentiation was scored using as 4 scale values as follows: 1: bipolar, undifferentiated; 2: bipolar to tripolar, initiated differentiation; 3: multibranched, differentiated cells; 4: multibranched, differentiated cells showing membranous structures (FIG. 1).
Differentiation induced by selected compounds was further validated by fluorescence microscopy in cells generated from our Plp-EGFP transgenic mouse. Increased fluorescence in treated oligodendrocyte progenitor was indicative of cell maturation and was again scored following the same scale. […] These were analyzed for cell toxicity assays by MTT were yellow 3-(4,5-Dimethylthiazol-2-yl)-2,5-diphenyltetrazolium bromide, a tetrazole (MTT) is reduced to purple formazan in the mitochondria of living cells, showing a solution color change measurable by OD620-590 (Data not shown). Further oligodendrocyte progenitor maturation in response to selected compounds was assessed by induction of myelin protein expression as determined by immunocytochemistry and western blot. […]

Akt = Akt activity in cell extracts of oligodendrocyte precursors (phosphorylation of Akt substrate GSKα/β); assay type: cell-based; conditions: 10 μM, 48 h
Description: Oligodendrocyte precursor differentiation requires the activation of a complex, highly controlled machinery that signals cells to stop migrating/proliferating and start extending processes and producing myelin components. A number of inducers and intracellular mediators of this process have been identified in vitro and in viva. […] Therefore, we studied whether our selected small molecules induced Akt signaling in oligodendrocyte precursors. We analyzed Akt activity in cell extracts of oligodendrocyte precursors treated with selected compounds (10 μM, 48 h), as determined by phosphorylation of Akt substrate GSKα/β.

Molecule | PLP/DM20 Expression (WB, % of Control) [1] | Differentiated Cells (IC, % of Control) [2] | induction of oligodendrocyte precursor maturation [3] | further results
CCCS(=O)(=O)N1CCN(C(=O)COc2ccc(OC)cc2)CC1 | 143.0 ± 6.9 n = 2 % of Control | 224.3 ± 66.3 n = 3; p <0.05 % of Control | – | –
CCS(=O)(=O)N1CCN(C(=O)COc2ccc(C)cc2)CC1 | 160.7 ± 8.2 n = 2 % of Control | 207.5 ± 38.2 n = 3; p <0.05 % of Control | – | –
CC(=O)NC(=Cc1ccc(Cl)cc1)C(=O)N1CCOCC1 [D, N-[2-(4-chlorophenyl)-1-(4-morpholinylcarbonyl)vinyl]acetamide] | – | – | showed induction of oligodendrocyte precursor maturation | –
Br.COc1ccc(C2=CSC3=NCCN23)cc1F [F, 3-(3-fluoro-4-methoxyphenyl)-5,6-dihydroimidazo[2,1-b][1,3]thiazole hydrobromide] | – | – | showed induction of oligodendrocyte precursor maturation | Akt phosphorylation (Akt): clearly detected
CCS(=O)(=O)N1CCN(C(=O)COc2ccccc2)CC1 | 148 ± 10.6 n = 2 % of Control | 195 ± 10.9 n = 3; p <0.05 % of Control | – | –
CNTF: ciliary neurotrophic factor, neurotrophin used as positive control for cell differentiation in primary screening (protein, UniProt P26441 1-200, looked up) Ciliary neurotrophic factor: MAFTEHSPLTPHRRDLCSRSIWLARKIRSDLTALTESYVKHQGLNKNINLDSADGMPVASTDQWSELTEAERLQENLQAYRTFHVLLARLLEDQQVHFTPTEGDFHQAIHTLLLQVAAFAYQIEELMILLEYKIPRNEADGMPINVGDGGLFEKKLWGLKVLQELSQWTVRSIHDLRFISSHQTGIPARGSHYIANNKKM | – | – | – | oligodendrocyte progenitor morphological changes indicative of cell maturation ([3]; positive control, 10 ng/ml, 48 hrs): marked oligodendrocyte progenitor morphological changes
